Values of other authors in patent US20070166227A1, “Crowned dithiocarbamate metal complexes and methods for their use” (priority 2004, published 2007).

binding affinity for NO: log β1 (log β1): 9.74
binding affinity for NO: log β2 (log β2): 15.44
SMILES: O=C(O)C1CCCN1C(=S)[S-].O=C(O)C1CCCN1C(=S)[S-].[Cu+2] (centres unmarked) [Cu(ProDTC)2]
